{"source": "patent US20210077540A1", "about": "“BIOACTIVE GREEN-LIPPED MUSSEL EXTRACTS AND USES THEREOF” (SANFORD LIMITED, priority 2018, published 2021)", "origin": "cited, not measured here", "key": {"[1]": {"details": "oral supplementation, meta-analysis of randomized, double-blind, placebo-controlled trials"}, "[2]": {"details": "supplementation, women with gestational hypertension incl. pre-eclampsia"}}, "data": [{"smiles": "N=C(N)NCCC[C@H](N)C(=O)O", "note": "[L-arginine]", "values": [{"measurement": "reduction of diastolic blood pressure, pooled estimate", "setting": "[1]", "value": 2.7, "unit": "mmHg"}, {"measurement": "reduction of systolic blood pressure, pooled estimate", "setting": "[1]", "value": 5.4, "unit": "mmHg"}, {"measurement": "effect on diastolic blood pressure (in words)", "setting": "[2]", "value": "reduces diastolic blood pressure"}, {"measurement": "effect on length of pregnancy (in words)", "setting": "[2]", "value": "lengthens pregnancy"}]}]}
